Square brackets hold non-standard residues; d marks the D form. Peptide text beside a SMILES is read from it. * marks the point of attachment. FITC = O=C1OC2(c3ccc(O)cc3Oc3cc(O)ccc32)c2ccc(NC(=S)*)cc21; pT = C[C@@H](OP(=O)(O)O)[C@H](N)C(=O)O; pS = N[C@@H](COP(=O)(O)O)C(=O)O
Legend:
[1] = free amino acid; cited from earlier work
Source text: This selectivity implies that most phosphopeptides formed by CK2-dependent phosphorylation contain multiple anionic residues and are often multiply phosphorylated.

[2] = target: T1, APLF FHA domain (Homo sapiens, UniProt Q8IW19); experiment: 1H,15N-HSQC NMR titration with inorganic anions; assay type: binding; conditions: for amide shift changes of U-[15N] APLF FHA produced by the anion: 0-150 mM titrant, 0.1 mM protein; for Kd: amide shifts of the more strongly shifted resonances, 25 mM HEPES, 25 mM MES, 150 mM NaCl, 1 mM EDTA, 1:1 binding, read-out: phosphate Kd
T1 construct: His6 (N, cleaved yes); TEV cleavage site (N, cleaved yes); made in house; host or cells: Escherichia coli Rosetta2 (DE3)
T1 sequence (Q8IW19 1-108 limits assumed): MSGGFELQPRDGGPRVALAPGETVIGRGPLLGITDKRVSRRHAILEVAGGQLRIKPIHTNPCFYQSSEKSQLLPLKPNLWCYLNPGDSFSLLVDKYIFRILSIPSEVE
Protocol: (§1) All NMR experiments were performed at 35°C on a Varian INOVA 500 MHz spectrometer equipped with a triple-resonance, pulsed-field gradient cryo-probe, with the exception of the ^31P experiments, which were collected on an Agilent/Varian DD2 600 MHz spectrometer equipped with a heteronuclear broadband probe. The backbone chemical shift assignments were made from 3D HNCACB, CBCA(CO)NH, HNCA, HN(CO)CA, HNCO and HN(CA)CO experiments that were obtained using Agilent BioPack pulse sequences (Agilent). The 3D experiments were acquired with non-uniform sampling to speed up the data acquisition ([36],[37]). Since several of the amide resonances were broadened as a result of the intermediate amide proton exchange dynamics at pH 7.4, a low pH buffer, 25 mM sodium citrate, 50 mM NaCl, and 1 mM EDTA, pH 5.5, was used for the amide backbone assignments. For phosphopeptide titration experiments, 2D ^1H,^15N-HSQC spectra were acquired on a sample containing 0.1 mM U-[^15N] APLF-FHA in 25 mM HEPES, 25 mM MES, 150 mM NaCl, 1 mM EDTA, pH 7.4 as a function of phosphopeptide concentration. The interaction of sodium phosphate, sodium sulfate, and sodium ethylsulfate with U-[^15N] APLF FHA sample was also studied by monitoring the ^1H,^15N-HSQC spectrum of the labeled protein as a function of the anion concentration. The volume of peptide or anion added never exceeded more than 10% of the total volume.

[3] = 31P NMR pH titration of free phosphopeptides (pK determination); assay type: physicochemical; conditions: pH 8.5 to 4.0, 0.5 mM peptide, 50 mM sodium acetate, 50 mM sodium cacodylate, 1 mM EDTA, TMP reference, Henderson-Hasselbalch fit
Protocol: 1D ^31P-NMR experiments were employed to determine the pK values of the phosphate groups in phosphopeptides and to characterize the interaction of the phosphopeptide with the APLF-FHA domain. Experimental parameters included a ^31P offset of 2.48 ppm, a sweep width of 20 ppm, an acquisition time of 1 sec, a relaxation delay of 1 sec, and 1024 scans were acquired per experiment. Phosphopeptide concentrations of 0.5 mM were used in all 1D ^31P NMR experiments. A two-dimensional selective ^1H,^31P-HSQC experiment ([38]) was used to assign the phosphoserine and phosphothreonine resonances. […]
Measurements of the pK values of the free phosphopeptides were performed in 50 mM sodium acetate, 50 mM sodium cacodylate, 1 mM EDTA as a function of pH with 0.5 mM tri-methylphosphate (TMP) added as a chemical shift reference. Small amounts of 0.1 N NaOH or HCl were titrated to vary the pH in the range from 8.5 to 4.0 in 0.2–0.4 pH decrements. pK values were determined by fitting the pH-dependent chemical shift data to a Henderson–Hasselbalch equation: where δP and δU correspond to the protonated and unprotonated chemical shifts. The dependence of the phosphopeptide ^31P NMR shifts as a function of APLF FHA domain concentration were determined in 25 mM HEPES, 25 mM MES, 150 mM NaCl, 1 mM EDTA, pH 7.4, with 0.25 mM TMP added as a chemical shift reference. […]

[4] = target: T1, APLF FHA domain; experiment: Fluorescence polarization peptide binding assay; conditions: FP; for Kd: room temperature
Protocol: Apparent dissociation constants for peptide-protein interactions were determined based on fluorescence polarization measurements of fluorescein-labeled peptides on a POLARstar Omega fluorescence polarization (FP) reader (BMG Labtech) using an excitation wavelength of 485 nm and the emission measured at 520 nm at room temperature. XRCC1 phosphopeptides used in FP studies (Table 1) were labeled with an N-terminal FITC-Gly-Gly fluorophore. Measurements were made as a function of pH in the range from pH 7.4 to 5.5 in FP buffer consisting of 25 mM HEPES, 25 mM MES, 150 mM NaCl, 1 mM EDTA, 2 mM DTT and 0.05% Tween 20. Samples of the APLF FHA domain in FP buffer were prepared at pH 7.4, 7.0, 6.5, 6.0 and 5.5. Samples corresponding to each titration step were put in a 96-well black flat-bottomed plate and the fluorescence emission polarization was determined. The FP results were normalized to a 0–1 scale after curve-fitting for the direct comparison of results from different conditions. Data for the interaction of a phosphopeptide (L) with APLF FHA (M) were fit to a single-site binding equation as described previously ([39]). All phosphopeptides used were synthesized by either GenScript or Thermo Fisher.

[5] = target: T1, APLF FHA domain; experiment: 1H,15N-HSQC NMR phosphopeptide titration; assay type: binding; conditions: pH 7.4, 0.1 mM U-[15N] APLF FHA, 25 mM HEPES, 25 mM MES, 150 mM NaCl, 1 mM EDTA, 35°C
Protocol: as §1

[6] = target: T1, APLF FHA domain; experiment: NMR lineshape simulation of amide exchange data; assay type: binding; conditions: two-site exchange lineshape simulation; pH 7.4; 35°C
Protocol: as §1, with “APLF-FHA in 25 mM HEPES, 25 mM MES, 150 mM NaCl, 1 mM EDTA, pH 7.4 as a function of phosphopeptide concentration. The interaction of sodium phosphate, sodium sulfate, and sodium ethylsulfate with U-[^15N] APLF FHA sample was also studied by monitoring the ^1H,^15N-HSQC spectrum of the labeled protein as a function of the anion concentration. The volume of peptide or anion added never exceeded more than 10% of the total volume.” left out
The lineshape simulations utilized a Mathematica algorithm (Wolfram Research, Champaign, IL, USA) based on the two-site exchange formalism given by Rogers and Woodbrey ([40]). The fraction of bound ligand, pB, is initially calculated using the above relation, the FHA domain and peptide concentrations and an assumed Kd value which is then varied to optimize the agreement with the experimental spectra. […]

[7] = pH 7.4, N-terminal FITC-Gly-Gly labelled peptide, 25 mM HEPES, 25 mM MES, 150 mM NaCl, 1 mM EDTA, 2 mM DTT, 0.05% Tween 20, single-site fit
[8] = pH 6.0, FITC-Gly-Gly labelled peptide, FP buffer
[9] = pH 6.5, FITC-Gly-Gly labelled peptide, FP buffer

In the case of `N[C@@H](COP(=O)(O)O)C(=O)O` [phosphoserine], the “phosphate pK (dianionic/monoanionic)” value [1] is listed as “approximately 5.75”.

In the case of `O=S(=O)([O-])[O-].[Na+].[Na+]` [sulfate, sodium sulfate], the “amide shift changes of U-[15N] APLF FHA produced by the anion” value (“amide shift changes” for short) ([2]; pH 7.4) is reported as “perturbs the same resonances that are sensitive to phosphate, although to a lesser extent”.

In the case of `C[C@@H](OP(=O)(O)O)[C@H](N)C(=O)O` [phosphothreonine], the “phosphate pK (dianionic/monoanionic)” value [1] is listed as about 5.95.

With “VYDEpSpTDEESEN [XRCC4pSpT-12, 12-residue XRCC4 peptide phosphorylated on Ser232/Thr233]” the “pK of pSer phosphate” value [3] was 6.90 and the “pK of pThr phosphate” value [3] was 7.22.

For `C[C@H](NC(=O)[C@H](Cc1ccc(O)cc1)NC(=O)[C@@H]1CCCN1C(=O)[C@H](CC(=O)O)NC(=O)CNC(=O)CNC(=S)Nc1ccc2c(c1)C(=O)OC21c2ccc(O)cc2Oc2cc(O)ccc21)C(=O)NCC(=O)N[C@@H](COP(=O)(O)O)C(=O)N[C@H](C(=O)N[C@@H](CC(=O)O)C(=O)N[C@@H](CCC(=O)O)C(=O)N[C@@H](CC(N)=O)C(=O)N[C@@H](CCC(=O)O)C(=O)N[C@@H](CC(=O)O)C(=O)N[C@@H](CCC(=O)O)C(=O)N[C@@H](CCC(=O)O)C(=O)N[C@@H](CCC(=O)O)C(=O)N[C@@H](Cc1c[nH]cn1)C(=O)N[C@@H](CCC(N)=O)C(=O)N[C@@H](CCC(=O)O)C(=O)O)[C@@H](C)OP(=O)(O)O` [XRCC1pSpTEE-18] ({FITC}-GGDPYAG[pS][pT]DENEDEEEHQE-OH; C-terminus assumed), the “fold reduction of Kd relative to XRCC1pSpT-18” value ([4]; pH 7.4) was 10 fold.

Work on `C[C@H](NC(=O)[C@H](Cc1ccc(O)cc1)NC(=O)[C@@H]1CCCN1)C(=O)NCC(=O)N[C@@H](COP(=O)(O)O)C(=O)N[C@H](C(=O)N[C@@H](CC(=O)O)C(=O)N[C@@H](CCC(=O)O)C(=O)N[C@@H](CC(N)=O)C(=O)O)[C@@H](C)OP(=O)(O)O` [XRCC1pSpT-9] (H-PYAG[pS][pT]DEN-OH) yielded a Kd [5] of 80 µM.

`C[C@H](NC(=O)[C@H](Cc1ccc(O)cc1)NC(=O)[C@@H]1CCCN1C(=O)[C@H](CC(=O)O)NC(=O)CNC(=O)CNC(=S)Nc1ccc2c(c1)C(=O)OC21c2ccc(O)cc2Oc2cc(O)ccc21)C(=O)NCC(=O)N[C@@H](CO)C(=O)N[C@H](C(=O)N[C@@H](CC(=O)O)C(=O)N[C@@H](CCC(=O)O)C(=O)N[C@@H](CC(N)=O)C(=O)N[C@H](C(=O)N[C@@H](CC(=O)O)C(=O)N[C@@H](CO)C(=O)N[C@@H](CCC(=O)O)C(=O)N[C@@H](CCC(=O)O)C(=O)N[C@@H](Cc1c[nH]cn1)C(=O)N[C@@H](CCC(N)=O)C(=O)N[C@@H](CCC(=O)O)C(=O)O)[C@@H](C)O)[C@@H](C)OP(=O)(O)O` [XRCC1SpT-18] ({FITC}-GGDPYAGS[pT]DENTDSEEHQE-OH; C-terminus assumed) gave a Kd [4, 7] of over 20 µM.

In the case of `CCOS(=O)(=O)[O-].[Na+]` [ethylsulfate, sodium ethylsulfate], the “amide shift changes” value ([2]; pH 7.4) is reported as “fails to produce any significant amide shifts” and the “amide shift changes” value ([2]; pH 7.4, listed as sodium ethylsulfate) is reported as “negligible shifts”.

For `C[C@H](NC(=O)[C@H](Cc1ccc(O)cc1)NC(=O)[C@@H]1CCCN1C(=O)[C@@H](N)CC(=O)O)C(=O)NCC(=O)N[C@@H](CCC(=O)O)C(=O)N[C@H](C(=O)N[C@@H](CC(=O)O)C(=O)N[C@@H](CCC(=O)O)C(=O)N[C@@H](CC(N)=O)C(=O)N[C@H](C(=O)N[C@@H](CC(=O)O)C(=O)N[C@@H](CO)C(=O)N[C@@H](CCC(=O)O)C(=O)N[C@@H](CCC(=O)O)C(=O)N[C@@H](Cc1c[nH]cn1)C(=O)N[C@@H](CCC(N)=O)C(=O)N[C@@H](CCC(=O)O)C(=O)O)[C@@H](C)O)[C@@H](C)OP(=O)(O)O` [XRCC1EpT-18] (H-DPYAGE[pT]DENTDSEEHQE-OH), the Kd [4, 8] was over 300 µM, the Kd [4, 9] was over 50 µM and the Kd [4, 7] was 9.94 ± 4.6 µM.

In the case of `C[C@H](NC(=O)[C@H](Cc1ccc(O)cc1)NC(=O)[C@@H]1CCCN1C(=O)[C@H](CC(=O)O)NC(=O)CNC(=O)CNC(=S)Nc1ccc2c(c1)C(=O)OC21c2ccc(O)cc2Oc2cc(O)ccc21)C(=O)NCC(=O)N[C@@H](COP(=O)(O)O)C(=O)N[C@H](C(=O)N[C@@H](CC(=O)O)C(=O)N[C@@H](CCC(=O)O)C(=O)N[C@@H](CC(N)=O)C(=O)N[C@H](C(=O)N[C@@H](CC(=O)O)C(=O)N[C@@H](CO)C(=O)N[C@@H](CCC(=O)O)C(=O)N[C@@H](CCC(=O)O)C(=O)N[C@@H](Cc1c[nH]cn1)C(=O)N[C@@H](CCC(N)=O)C(=O)N[C@@H](CCC(=O)O)C(=O)O)[C@@H](C)O)[C@@H](C)OP(=O)(O)O` [XRCC1pSpT-18] ({FITC}-GGDPYAG[pS][pT]DENTDSEEHQE-OH; C-terminus assumed), the Kd ([4]; pH 5.5, FITC-Gly-Gly labelled peptide, FP buffer) is reported as over 60 µM, the Kd [4, 8] is reported as over 25 µM and the “fold reduction of binding affinity at pH 6.0” value ([4]; pH 6.0 relative to pH 7.4) is reported as over 8 fold. For the same compound, the Kd [4, 9] was 8.23 ± 1.89 µM, the “fold reduction of binding affinity at pH 6.5” value ([4]; pH 6.5 relative to pH 7.4) was “less than 2.5 fold” and the Kd ([4]; pH 7.0, FITC-Gly-Gly labelled peptide, FP buffer) was 4.67 ± 0.04 µM. The Kd [4, 7] was 3.31 ± 0.15 µM and the “τB, lifetime of the protein-peptide complex” value [6] was 0.9 ms.

`O=P(O)(O)O` [phosphate, sodium phosphate] showed a Kd ([2]; pH 5.5) of 92500 ± 17800 µM and a Kd ([2]; pH 7.4) of 14100 ± 3700 µM.

From publication PMC5716189, “Characterization of the APLF FHA–XRCC1 phosphopeptide interaction and its structural and functional implications” (Nucleic Acids Research, 2017)
